Laboratory results as given in patent US20100184770A1, “COMPOUNDS” (Glaxo Group Limited, priority 2006, published 2010).

Assays:
Type in all cases: cell-based
human H1 receptor [1] = target: T1, human H1 receptor (Homo sapiens, UniProt P35367); experiment: Histamine H1 functional antagonist assay: determination of functional pKi values (FLIPR); details: CHO cells expressing human H1 receptor, histamine at EC80, FLIPR, read-out: average pKi (pKb) at H1 (converted)
T1 construct: expressed in transfected cells
Method: (§1) 1. Generation of Histamine H1 Cell Line The human H1 receptor is cloned using known procedures described in the literature [Biochem. Biophys. Res. Commun., 201(2):894 (1994)]. Chinese hamster ovary (CHO) cells stably expressing the human H1 receptor are generated according to known procedures described in the literature [Br. J. Pharmacol., 117(6):1071 (1996)].
The histamine H1 cell line is seeded into non-coated black-walled clear bottom 384-well tissue culture plates in alpha minimum essential medium (Gibco/Invitrogen, cat no. 22561-021), supplemented with 10% dialysed foetal calf serum (Gibco/Invitrogen cat no. 12480-021) and 2 mM L-glutamine (Gibco/Invitrogen cat no 25030-024) and is maintained overnight at 5% CO2, 37° C.
Excess medium is removed from each well to leave 10 μl. 30 μl loading dye (250 μM Brilliant Black, 2 μM Fluo-4 diluted in Tyrodes buffer+probenecid (145 mM NaCl, 2.5 mM KCl, 10 mM HEPES, 10 mM D-glucose, 1.2 mM MgCl2, 1.5 mM CaCl2, 2.5 mM probenecid, pH adjusted to 7.40 with NaOH 1.0 M)) is added to each well and the plates are incubated for 60 min at 5% CO2, 37° C.
10 μl of test compound, diluted to the required concentration in Tyrodes buffer+probenecid (or 10 μl Tyrodes buffer+probenecid as a control) is added to each well and the plate is incubated for 30 min at 37° C., 5% CO2. The plates are then placed into a FLIPR™ (Molecular. Devices, UK) to monitor cell fluorescence (λex=488 nm, λEM=540 nm) in the manner described in Sullivan et al., (In: Lambert DG (ed.), Calcium Signaling Protocols, New Jersey: Humana Press, 1999, 125-136) before and after the addition of […] at a concentration that results in the final assay concentration of histamine being EC80.
Functional antagonism is indicated by a suppression of histamine induced increase in fluorescence, as measured by the FLIPR™ system (Molecular Devices). By means of concentration effect curves, functional affinities are determined using standard pharmacological mathematical analysis.

human H1 receptor [2] = target: T1, human H1 receptor; experiment: Histamine H1 functional antagonist assay: determination of antagonist pA2 (FLIPR)
Method: as §1
The histamine H1 receptor expressing CHO cells are seeded into non-coated black-walled clear bottom 96-well tissue culture plates as described above. […]
The plates are then placed into a FLIPR™ (Molecular Devices, UK) to monitor cell fluorescence (λex=488 nm, λEM=540 nm) in the manner described in Sullivan et al., (In: Lambert D G (ed.), Calcium Signaling Protocols, New Jersey: Humana Press, 1999, 125-136) before and after the addition of 50 μl histamine over a concentration range of 1 mM 0.1 nM. […] The antagonist pA2 is calculated using the following standard equation: pA2=log(DR-1)−log [B] where DR=dose ratio, defined as EC50 antagonist-treated/EC50 control and [B]=concentration of antagonist.

human H1 receptor [3] = target: T1, human H1 receptor; experiment: Histamine H1 functional antagonist assay: determination of antagonist duration (washout, FLIPR); details: at one or more time points after washout
Method: as §1
To determine the antagonist duration, cells are cultured overnight in non-coated black-walled clear bottom 96-well tissue culture plates, are washed with PBS and are incubated with a concentration of antagonist chosen to give an approximate DR in the range 30-300. Following the 30 min antagonist incubation period, the cells are washed two or three times with 200 μl of PBS and then 100 μl Tyrodes buffer is added to each well to initiate antagonist dissociation. Following incubation for predetermined times, typically 30-270 min at 37° C., the cells are then washed again with 200 μl PBS and are incubated with 100 Tyrodes buffer containing Brilliant Black, probenecid and Fluo-4 for 45 min at 37° C., as described above. After this period, the cells are challenged with histamine in the FLIPR™ as described above. The dose ratio at each time point is used to determine the fractional H1 receptor occupancy by the following equation: fractional receptor occupancy=(DR-1)/DR. The decrease in receptor occupancy over time approximates to a straight line and is analysed by linear regression. The slope of this straight line fit is used as an index of the dissociation rate of the antagonist. The dose ratios for antagonist treated cells and for antagonist treated and washed cells at each time point are used to calculate a relative dose ratio (rel DR) which is also used as an index of antagonist duration. Antagonists with long duration of action produce rel DR values close to 1, and antagonists with short duration of action produce rel DR values that approaches the dose ratio value obtained for antagonist treatment alone.

T1 sequence (P35367 whole entry): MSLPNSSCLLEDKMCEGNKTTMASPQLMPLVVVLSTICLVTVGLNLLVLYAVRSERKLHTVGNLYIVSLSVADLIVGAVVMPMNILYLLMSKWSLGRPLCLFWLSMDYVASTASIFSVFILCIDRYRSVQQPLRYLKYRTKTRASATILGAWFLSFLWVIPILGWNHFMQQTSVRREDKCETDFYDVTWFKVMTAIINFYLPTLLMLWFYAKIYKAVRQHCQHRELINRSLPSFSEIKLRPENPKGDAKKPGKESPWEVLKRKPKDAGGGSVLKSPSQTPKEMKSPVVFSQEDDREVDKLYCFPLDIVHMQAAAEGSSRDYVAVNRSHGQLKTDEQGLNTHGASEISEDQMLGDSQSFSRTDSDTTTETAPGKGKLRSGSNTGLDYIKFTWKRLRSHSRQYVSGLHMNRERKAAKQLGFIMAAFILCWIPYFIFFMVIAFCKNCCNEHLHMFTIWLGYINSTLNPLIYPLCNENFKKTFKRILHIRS

Compound: COCCC(=O)NCCN1CCC[C@@H]1Cn1nc(Cc2ccc(Cl)cc2)c2ccccc2c1=O.O=CO [Example 35, N-[2-((2R)-2-{[4-[(4-Chlorophenyl)methyl]-1-oxo-2(1H)-phthalazinyl]methyl}-1-pyrrolidinyl)ethyl]-3-(methyloxy)propanamide, formate salt]
- Ki (human H1 receptor [1]): < 316 nM
- Kb (human H1 receptor [2]): < 10 nM
- duration of action compared with azelastine in the histamine H1 functional antagonist assay (human H1 receptor [3]): longer duration of action than azelastine

Compound: Cl.O=C(CC(F)(F)F)NCCN1CCC[C@@H]1Cn1nc(Cc2ccc(Cl)cc2)c2ccccc2c1=O [Example 36a, N-[2-((2R)-2-{[4-[(4-Chlorophenyl)methyl]-1-oxo-2(1H)-phthalazinyl]methyl}-1-pyrrolidinyl)ethyl]-3,3,3-trifluoropropanamide, hydrochloride]
- Ki (human H1 receptor [1]): < 31.6 nM
- Kb (human H1 receptor [2]): < 10 nM
- duration of action compared with azelastine in the histamine H1 functional antagonist assay (human H1 receptor [3]): longer duration of action than azelastine
